The values below come from paper PMC6437697 (Journal of Medicinal Chemistry, 2019).

Holding throughout (assay): KINOMEscan
What all share (type): binding
Details in all cases: read-out: % control activity remaining

In one assay the target is T1, ERK8 (Homo sapiens, UniProt Q8TD08).
T1 construct: purchased Eurofins DiscoverX KINOMEscan
T1 sequence (Q8TD08 1-544): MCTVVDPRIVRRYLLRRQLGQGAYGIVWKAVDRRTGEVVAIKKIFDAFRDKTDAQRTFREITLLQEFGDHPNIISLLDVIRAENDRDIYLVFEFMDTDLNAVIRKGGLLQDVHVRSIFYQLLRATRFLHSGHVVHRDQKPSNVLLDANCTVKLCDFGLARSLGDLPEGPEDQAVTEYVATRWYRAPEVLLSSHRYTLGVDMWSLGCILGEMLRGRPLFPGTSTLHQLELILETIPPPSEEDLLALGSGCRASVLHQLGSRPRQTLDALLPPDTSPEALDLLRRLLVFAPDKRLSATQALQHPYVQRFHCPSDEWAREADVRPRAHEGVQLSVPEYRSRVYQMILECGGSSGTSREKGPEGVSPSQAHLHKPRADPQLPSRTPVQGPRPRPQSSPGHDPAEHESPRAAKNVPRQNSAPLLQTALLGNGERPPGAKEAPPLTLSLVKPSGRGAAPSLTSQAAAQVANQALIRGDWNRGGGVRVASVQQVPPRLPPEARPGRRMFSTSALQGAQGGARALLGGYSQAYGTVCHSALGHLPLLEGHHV

For the next assay, the target named is T2, EPHA8 (Homo sapiens, UniProt P29322).
T2 construct: purchased Eurofins DiscoverX KINOMEscan
T2 sequence (P29322 28-1005): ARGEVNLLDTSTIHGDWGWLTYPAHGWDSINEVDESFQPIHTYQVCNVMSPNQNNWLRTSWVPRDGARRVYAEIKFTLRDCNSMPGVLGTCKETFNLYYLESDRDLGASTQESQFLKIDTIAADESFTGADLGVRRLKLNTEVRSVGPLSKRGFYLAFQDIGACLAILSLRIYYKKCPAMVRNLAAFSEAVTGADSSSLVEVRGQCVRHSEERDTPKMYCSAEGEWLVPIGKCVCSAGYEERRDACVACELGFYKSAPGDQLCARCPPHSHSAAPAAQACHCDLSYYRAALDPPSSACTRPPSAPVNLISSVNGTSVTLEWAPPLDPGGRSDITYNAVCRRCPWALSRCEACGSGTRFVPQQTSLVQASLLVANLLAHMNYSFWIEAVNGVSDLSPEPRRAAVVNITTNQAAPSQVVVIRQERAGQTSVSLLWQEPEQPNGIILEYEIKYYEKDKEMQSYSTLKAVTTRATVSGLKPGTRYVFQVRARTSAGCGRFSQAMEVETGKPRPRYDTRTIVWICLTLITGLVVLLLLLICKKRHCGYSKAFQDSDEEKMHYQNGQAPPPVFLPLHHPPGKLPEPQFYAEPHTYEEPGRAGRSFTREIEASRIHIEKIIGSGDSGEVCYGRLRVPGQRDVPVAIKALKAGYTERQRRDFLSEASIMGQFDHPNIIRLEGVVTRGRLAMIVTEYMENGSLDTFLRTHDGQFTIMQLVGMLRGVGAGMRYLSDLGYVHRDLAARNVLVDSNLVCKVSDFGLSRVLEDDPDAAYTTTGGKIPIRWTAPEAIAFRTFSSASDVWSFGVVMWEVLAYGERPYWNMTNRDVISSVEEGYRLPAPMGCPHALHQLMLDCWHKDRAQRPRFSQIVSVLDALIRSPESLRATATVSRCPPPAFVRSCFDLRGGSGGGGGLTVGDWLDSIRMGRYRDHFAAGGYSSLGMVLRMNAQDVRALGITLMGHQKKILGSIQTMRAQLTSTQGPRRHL

A further assay concerns the target T3, EPHA3 (Homo sapiens, UniProt P29320).
T3 construct: purchased Eurofins DiscoverX KINOMEscan
T3 sequence (P29320 21-983): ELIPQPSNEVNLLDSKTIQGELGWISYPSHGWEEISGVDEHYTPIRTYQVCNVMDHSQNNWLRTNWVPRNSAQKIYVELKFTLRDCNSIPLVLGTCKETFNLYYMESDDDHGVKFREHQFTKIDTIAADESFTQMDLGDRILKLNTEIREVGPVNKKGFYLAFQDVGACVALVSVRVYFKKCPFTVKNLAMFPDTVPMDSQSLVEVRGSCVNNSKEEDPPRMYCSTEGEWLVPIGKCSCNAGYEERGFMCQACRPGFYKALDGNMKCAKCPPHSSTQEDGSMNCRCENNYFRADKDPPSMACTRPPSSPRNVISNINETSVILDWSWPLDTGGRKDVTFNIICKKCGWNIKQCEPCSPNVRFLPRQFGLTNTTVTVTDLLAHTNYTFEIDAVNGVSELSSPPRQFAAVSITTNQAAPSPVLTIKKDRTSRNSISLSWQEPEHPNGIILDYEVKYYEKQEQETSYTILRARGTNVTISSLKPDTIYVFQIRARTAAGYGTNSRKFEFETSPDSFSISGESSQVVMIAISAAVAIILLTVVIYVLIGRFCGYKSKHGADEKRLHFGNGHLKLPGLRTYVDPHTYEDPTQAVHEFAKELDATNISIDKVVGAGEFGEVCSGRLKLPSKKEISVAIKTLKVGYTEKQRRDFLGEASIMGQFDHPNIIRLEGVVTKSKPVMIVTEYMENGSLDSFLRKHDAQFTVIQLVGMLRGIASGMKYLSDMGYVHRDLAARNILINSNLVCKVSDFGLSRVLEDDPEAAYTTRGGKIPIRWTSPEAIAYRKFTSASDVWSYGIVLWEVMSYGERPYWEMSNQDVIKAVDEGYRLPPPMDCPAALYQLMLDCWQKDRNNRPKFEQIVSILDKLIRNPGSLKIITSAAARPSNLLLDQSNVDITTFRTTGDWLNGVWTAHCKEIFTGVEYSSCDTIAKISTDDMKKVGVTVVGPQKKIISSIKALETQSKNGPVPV

As to `Clc1cc(NCC2CC2)c2ncc(-c3ccc4[nH]ncc4c3)n2n1` [compound 2, 6-Chloro-N-(cyclopropylmethyl)-3-(1H-indazol-5-yl)imidazo[1,2-b]pyridazin-8-amine], the remaining binding at 1 µM at ERK8 was determined as 87%; at EPHA8, 90%; on EPHA3, 78%.

With `O=C(CN1CCOCC1)N[C@H]1CC[C@H](Nc2cc(Cl)nn3c(-c4ccc5[nH]ncc5c4)cnc23)CC1` [compound 26], the figures for the remaining binding at 1 µM at ERK8, on EPHA8 and at EPHA3 were 81%, 90% and 88%, respectively.

On to `CN1CCC(CNc2cc(Cl)nn3c(-c4cc5nc(Nc6ccccc6)[nH]c5cc4F)cnc23)CC1` [compound 31, 6-Chloro-3-(6-fluoro-2-(phenylamino)-1H-benzo[d]imidazol-5-yl)-N-((1-methylpiperidin-4-yl)methyl)imidazo[1,2-b]pyridazin-8-amine], for which the remaining binding at 1 µM at ERK8 turned out to be 100%; on EPHA8, 92%; on EPHA3, 100%.
